Source: patent publication US20220235012A1, “ACID ADDITION SALT OF PYRIMETHAMINE” (GLG PHARMA S.A., priority 2018, published 2022)
Where a name gives a salt, the structure may show the parent alone.

Columns and labels:
[1] = cited from earlier work
[2] = Solubility of pyrimethamine salts, own method at 20° C. and 60° C. in water, 10% Tween 80 and 10% Cremophor RH 40; type: physicochemical; settings: without surfactant and/or emulsifier
[3] = Solubility in terms of Ph. Eur. 9.2 (approximate volume of solvent per gram of solute); type: physicochemical; settings: descriptive term
Procedure: The solubility of pyrimethamine salts with different organic and mineral acids was evaluated according to the general recommendations described in Ph. Eur. 9.2 for the pharmaceutical active ingredients. The “solubility” ° according to Ph. Eur. 9.2, is the approximate volume of solvent in millilitres per gram of solute.

solubility in water at ambient temperature [2]	Solubility in terms of Ph. Eur. 9.2 [3]	Structure (SMILES)	solubility of pyrimethamine in water [1]
		CCc1nc(N)nc(N)c1-c1ccc(Cl)cc1 [pyrimethamine, 5-(4-chlorophenyl)-6-ethyl-2,4-pyrimidinediamine]	10 µg/mL
freely soluble	Sparingly soluble	CCc1nc(N)nc(N)c1-c1ccc(Cl)cc1 [Methanesulfonate, methanesulfonic acid salt of 5-(4-chlorophenyl)-6-ethyl-2,4-pyrimidinediamine]	
